ChEMBL document CHEMBL1201862, “PubChem BioAssay data set” (2004)
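Dose response: 5 concentrations. Exposure: 48 h. Format: 96-well plates. Endpoint: linear interpolation; highest concentration if not reached. Abbreviation: GI50, concentration required for 50% inhibition of growth.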 The source made the active and inactive calls. Cut-off read from the data, not from the text of the source: active = GI50 up to about 1.1 µM and inactive = higher.

What was measured:
Experiment in all cases: NCI tumour cell line growth inhibition, 48 h
[1] = test system: HCT-15
[2] = test system: HCC 2998
[3] = test system: DLD-1
[4] = test system: HL-60
[5] = test system: SNB-78
[6] = test system: SNB-75
[7] = test system: SK-OV-3
[8] = test system: KM12
[9] = test system: SK-MEL-5
[10] = test system: SR
[11] = test system: SN12C
[12] = test system: TK-10
[13] = test system: M14
[14] = test system: EKVX
[15] = test system: HOP-18
[16] = test system: U-251
[17] = test system: SK-MEL-28
[18] = test system: HOP-62
[19] = test system: RPMI-8226
[20] = test system: HT-29
[21] = test system: OVCAR-4
[22] = test system: NCI-H522
[23] = test system: RXF 631
[24] = test system: UACC-62
[25] = test system: HOP-92
[26] = test system: OVCAR-5
[27] = test system: SF-539
[28] = test system: CAKI-1
[29] = test system: DMS-273
[30] = test system: SF-295
[31] = test system: NCI-H460
[32] = test system: COLO 205
[33] = test system: OVCAR-3
[34] = test system: UACC-257
[35] = test system: HCT-116
[36] = test system: NCI-H226
[37] = test system: KM-20L2
[38] = test system: MOLT-4
[39] = test system: OVCAR-8
[40] = test system: 786-0
[41] = test system: LOX IMVI
[42] = test system: K562
[43] = test system: NCI-H23
[44] = test system: A549
[45] = test system: SK-MEL-2
[46] = test system: RXF 393
[47] = test system: XF498
[48] = test system: DMS-114
[49] = test system: Malme-3M
[50] = test system: CCRF-CEM
[51] = test system: LXFL 529
[52] = test system: IGROV-1
[53] = test system: ACHN
[54] = test system: M19-MEL
[55] = test system: SNB-19
[56] = test system: SW-620

COC(=O)CCC(=O)Nc1ccc(Cl)cc1C
GI50 [1]: > 100 µM
GI50 [2]: > 100 µM (inactive)
GI50 [3]: > 100 µM (inactive)
GI50 [4]: 0.399 µM (active)
GI50 [5]: 98.4 µM (inactive)
GI50 [6]: > 74.5 µM (inactive)
GI50 [7]: > 100 µM (inactive)
GI50 [8]: 15.5 µM (inactive)
GI50 [9]: > 92.9 µM (inactive)
GI50 [10]: 5.47 µM (inactive)
GI50 [11]: > 23.2 µM (inactive)
GI50 [12]: > 100 µM (inactive)
GI50 [13]: > 100 µM (inactive)
GI50 [14]: > 55.2 µM (inactive)
GI50 [15]: > 100 µM (inactive)
GI50 [16]: > 22.4 µM (inactive)
GI50 [17]: > 100 µM (inactive)
GI50 [18]: 39.4 µM (inactive)
GI50 [19]: 0.973 µM (active)
GI50 [20]: > 100 µM (inactive)
GI50 [21]: > 75.7 µM (inactive)
GI50 [22]: 3.41 µM (inactive)
GI50 [23]: > 29.9 µM (inactive)
GI50 [24]: 14.3 µM (inactive)
GI50 [25]: > 60.8 µM (inactive)
GI50 [26]: > 100 µM (inactive)
GI50 [27]: > 100 µM (inactive)
GI50 [28]: 23.4 µM (inactive)
GI50 [29]: > 100 µM (inactive)
GI50 [30]: > 100 µM (inactive)
GI50 [31]: > 100 µM (inactive)
GI50 [32]: > 64.9 µM (inactive)
GI50 [33]: 43.9 µM (inactive)
GI50 [34]: > 67.1 µM (inactive)
GI50 [35]: > 100 µM (inactive)
GI50 [36]: > 52.6 µM (inactive)
GI50 [37]: > 48.4 µM (inactive)
GI50 [38]: 1.8 µM (inactive)
GI50 [39]: > 100 µM (inactive)
GI50 [40]: > 50.8 µM (inactive)
GI50 [41]: > 25.8 µM (inactive)
GI50 [42]: 20.8 µM (inactive)
GI50 [43]: > 71 µM (inactive)
GI50 [44]: > 22 µM (inactive)
GI50 [45]: > 47.8 µM (inactive)
GI50 [46]: > 63 µM (inactive)
GI50 [47]: 13.5 µM (inactive)
GI50 [48]: 0.859 µM (active)
GI50 [49]: > 100 µM (inactive)
GI50 [50]: 0.123 µM (active)
GI50 [51]: 32.1 µM (inactive)
GI50 [52]: > 64 µM (inactive)
GI50 [53]: > 37.2 µM (inactive)
GI50 [54]: > 100 µM (inactive)
GI50 [55]: > 100 µM (inactive)
GI50 [56]: > 100 µM (inactive)
